# Measured values from patent US8877261B2, “Anti-redness active agent and cosmetic compositions comprising same” (Laboratoires Expanscience, priority 2011, dated 2014).
# Marks after values point to notes of the source that are not given here.
# Assays:
# [1] = test system: Normal human dermal microvascular endothelial cells; test: Proliferation of endothelial cells in the presence of VEGF (PNPP viability); type: cell-based; details: for T24 h - %/control (without VEGF) T0 / Percentage of inhibition 24 h (proliferation induced by VEGF): 24 hours; for T24 h - %/control (without VEGF) T0 / T48 h - %/control (without VEGF) T0: in the presence of VEGF, PNPP signal, mean±standard deviation; for T24 h - %/control (without VEGF) T0 / T48 h - %/control (without VEGF) T0 / Percentage of inhibition 24 h (proliferation induced by VEGF) / Percentage of inhibition 48 h (proliferation induced by VEGF): ARG 0.2%, LUP 0.02%; for T48 h - %/control (without VEGF) T0 / Percentage of inhibition 48 h (proliferation induced by VEGF): 48 hours; for stimulation of the growth of endothelial cells in relation to control cells: VEGF, p<0.01; for Percentage of inhibition 24 h (proliferation induced by VEGF) / Percentage of inhibition 48 h (proliferation induced by VEGF): alone or in combination
# Experimental: Normal human dermal microvascular endothelial cells were incubated for 24 or 48 hours in the absence (control) or in the presence of the arabinogalactan (ARG)/lupin peptides (LUP) active agents at concentrations of 0.2%/0.02% alone or in combination and in the presence of vascular endothelial growth factor (VEGF), the reference activator. At the end of incubation, the viability of the cells was evaluated by a spectrophotometric method: P-nitrophenyl phosphate (PNPP) is transformed into p-nitrophenol by phosphatases of viable cells and the absorbance at 405 nm of p-nitrophenol is directly proportional to the number of viable cells.
# The results are expressed as the percentage of the “PNPP” signal of the control without VEGF at TO (mean±standard deviation).
# The statistical significance of the differences between the “VEGF stimulated cells” and “VEGF+active agents” conditions was evaluated by a single-factor analysis of variance followed by a Holm-Sidak test.
# The percentage of inhibition of proliferation is calculated according to the following equation: [(active treatment)−(VEGF stimulated)/(control without VEGF)−(VEGF stim)]*100 Results
# MMP9 = test: Gene expression of MMP9 in keratinocytes induced by PMA (real-time PCR); type: cell-based, human; details: NHEK, total 40 hours
# Experimental: The effect of the active agents was sought in a basal condition (to study MMP2) or in a preventive manner on a cell layer having been subjected to inflammatory stress induced by PMA (for MMP9).
# Normal human epidermal keratinocytes (NHEK) were preincubated for 24 hours in the presence of the arabinogalactan (ARG)/lupin peptides (LUP) active agents at concentrations of 0.2%/0.02%. PMA was then added for a total treatment period of 40 hours.
# (§1) At the end of the treatment, the culture supernatants were removed and total RNA was extracted, analyzed and assayed. The neo-synthesized cDNA relating to the genes of interest (MMP2, MMP9) or to the reference genes were amplified selectively by iQ5 real-time PCR (Biorad) using SybrGreen technology.
# (§2) By calculating ΔCt (Ctgene of interest−Ctreference gene) and ΔΔCt (ΔCtcontrol−ΔCttreated) the relative quantity of the gene of interest was measured: RQ=(1+E)^ΔΔCt; when E (effectiveness) is equal to 1, then RQ=2^ΔΔCt.
# The significance of the results was verified for the ΔCt values by a single-factor analysis of variance followed by a Dunnett's test (for MMP2) or a Tukey's test (for MMP9).
# The percentage of inhibition is thus calculated for MMP9: [(RQ(PMA stimulated)−RQ(active treatment))/RQ(PMA stimulated)]*100 Results
# interleukin-8 (IL8) = test: Release of IL8 by keratinocytes induced by PMA (ELISA); type: cell-based, human; details: dexamethasone 10^−7 M, ARG 0.2% + LUP 0.02%
# Experimental: Human keratinocytes (NCTC 2544 cell line) were preincubated for 24 hours with the arabinogalactan (ARG)/lupin peptides (LUP) active agents at concentrations of 0.2%/0.02% or with the reference molecule, dexamethasone.
# Inflammation was then induced by treatment with PMA for 24 hours, always in the presence of the active agents or the reference molecule.
# At the end of incubation, the quantities of interleukin-8 (IL8) present in the culture supernatants were measured by ELISA.
# The significance of the results was verified by a single-factor analysis of variance followed by a Tukey's test.
# The percentage of inhibition is calculated according to the following formula: [(stimulated PMA)−(active treatment)/(stimulated PMA)]*100 Results (Table 10)
# cathelicidin (LL37) = test: Gene expression of cathelicidin (LL37) induced by calcitriol in keratinocytes (real-time PCR); type: cell-based, human; details: for Mean ΔCt (CtLL37 − CtGAPDH) / LL37 expression (relative quantity) / ΔΔCt (LL37) / Percentage of inhibition (LL37 expression): NHEK, 24 hours, ARG 0.2%, LUP 0.02%; for Mean ΔCt (CtLL37 − CtGAPDH) / LL37 expression (relative quantity) / ΔΔCt (LL37): with calcitriol; for Mean ΔCt (CtLL37 − CtGAPDH): alone or in combination; for LL37 expression (relative quantity): control cells = 1.00; for ΔΔCt (LL37): ΔCtcontrol−ΔCttreated; for Percentage of inhibition (LL37 expression): versus calcitriol stimulated control
# Experimental: (§3) Normal human epidermal keratinocytes (NHEK) were cultured in differentiation culture medium supplemented with Ca^++. […] At the end of the treatment, the culture supernatants were removed and total RNA was extracted, analyzed and assayed. The neo-synthesized cDNA relating to the genes of interest (LL37 and KLK5) or to the reference genes were amplified selectively by iQ5 real-time PCR (Biorad) using SybrGreen technology. […] By calculating ΔCt (Ctgene of interest−Ctreference gene) and ΔΔCt (ΔCtcontrol−ΔCttreated) the relative quantity of the gene of interest was measured: […] The significance of the results was verified for the ΔCt values by a single-factor analysis of variance followed by a Tukey's test. The percentage of inhibition of the expression of LL37 and KLK5 is thus calculated: [(RQ(stim calcitriol)−RQ(active treatment))/RQ(stim calcitriol)]*100 Results
# VEGF = test: Gene expression of VEGF by keratinocytes (real-time PCR); type: cell-based, human; details: NHEK; for Percentage of inhibition (VEGF expression): versus control cells
# Experimental: Normal human epidermal keratinocytes (NHEK) were incubated in the presence of the complex of arabinogalactan (ARG)/lupin peptides (LUP) active agents at concentrations of 0.2%/0.02% alone or in combination.
# as §1, with “(VEGF, FGF2, HIF1α, THBS1)” for “(MMP2, MMP9)”
# as §2
# The significance of the results was verified for the ΔCt values by a single-factor analysis of variance followed by a Dunnett's test.
# The percentage of inhibition is calculated for VEGF, FGF2 and HIF1α: [(RQ(control)−RQ(active treatment))/RQ (control)]*100
# kallikrein-5 (KLK5) = test: Gene expression of kallikrein-5 (KLK5) induced by calcitriol in keratinocytes (real-time PCR); type: cell-based, human
# Experimental: as §3
# [2] = NCTC 2544 keratinocytes, 24 hours preincubation then PMA 24 hours, culture supernatants
# [3] = calcitriol versus control cells, p<0.001
compound,measurement,setting,value
VEGF,T24 h - %/control (without VEGF) T0,[1],213.2 ± 10.8%
same,T48 h - %/control (without VEGF) T0,[1],262.6 ± 5^ %
same,stimulation of the growth of endothelial cells in relation to control cells,[1]; after 24 hours of incubation,78.9%
same,stimulation of the growth of endothelial cells in relation to control cells,[1]; after 48 hours of incubation,159%
CCCCCCCCCCCCCC(=O)O[C@@H]1[C@@H](C)[C@@]2(O)[C@@H](C=C(CO)C[C@]3(O)C(=O)C(C)=C[C@@H]23)[C@@H]2C(C)(C)[C@]12OC(C)=O [PMA],ΔΔCt (MMP9),MMP9; PMA stimulated,6.55
same,MMP9 expression (relative quantity),"MMP9; PMA stimulated, control cells = 1",93.70 $$$
same,Mean ΔCt (CtMMP9 − CtGAPDH),"MMP9; preincubated 24 hours, then PMA, ARG 0.2% + LUP 0.02%",2.32
same,IL8 (ng/ml),interleukin-8 (IL8); [2],30.60 ± 1.888 $$$ ng/ml
arabinogalactan [ARG],Mean ΔCt (CtLL37 − CtGAPDH),cathelicidin (LL37),11.31
same,LL37 expression (relative quantity),cathelicidin (LL37),7.46 *
same,ΔΔCt (LL37),cathelicidin (LL37),2.9
same,Percentage of inhibition (LL37 expression),cathelicidin (LL37),18.2%
same,Percentage of inhibition (LL37 expression),cathelicidin (LL37); listed as Arabinogalactan,18%
same,T24 h - %/control (without VEGF) T0,[1],204.7 ± 7.1%
same,Percentage of inhibition 24 h (proliferation induced by VEGF),[1],17.03%
same,Percentage of inhibition 24 h (proliferation induced by VEGF),[1]; listed as arabinogalactan,17%
same,T48 h - %/control (without VEGF) T0,[1],252.9 ± 6^ %
same,Percentage of inhibition 48 h (proliferation induced by VEGF),[1],9.71%
same,Percentage of inhibition 48 h (proliferation induced by VEGF),[1]; listed as arabinogalactan,~10%
same,Mean ΔCt (CtVEGF − CtGAPDH),"VEGF; ARG 0.2%, LUP 0.02%, alone or in combination",9.03
same,VEGF expression (relative quantity),VEGF; control cells = 1,0.707 **
same,ΔΔCt (VEGF),VEGF; ΔCtcontrol−ΔCttreated,−0.5
same,Percentage of inhibition (VEGF expression),"VEGF; ARG 0.2%, LUP 0.02%",29.3%
same,Percentage of inhibition (VEGF expression),"VEGF; ARG 0.2%, LUP 0.02%, listed as Arabinogalactan",29%
"C[C@@H]1C[C@H]2[C@@H]3CCC4=CC(=O)C=C[C@]4(C)[C@@]3(F)[C@@H](O)C[C@]2(C)[C@@]1(O)C(=O)CO [Dexamethasone, dexamethasone]",inhibition at 0.1 µM,"interleukin-8 (IL8); Homo sapiens, NCTC-2544, versus PMA stimulated control, NCTC 2544, read-out: percentage of inhibition of IL8 release induced by PMA",81%
same,IL8,interleukin-8 (IL8); [2],5.967 ± 0.203 ng/mL
same,percentage of inhibition of IL8 release induced by PMA,"interleukin-8 (IL8); versus PMA stimulated control, NCTC 2544",80.5%
C=C1/C(=C\C=C2/CCC[C@]3(C)[C@@H]([C@H](C)CCCC(C)(C)O)CC[C@@H]23)C[C@@H](O)C[C@@H]1O [calcitriol],Mean ΔCt (CtLL37 − CtGAPDH),cathelicidin (LL37),11.02
same,LL37 expression (relative quantity),cathelicidin (LL37),9.12 $$$
same,ΔΔCt (LL37),cathelicidin (LL37),3.19
same,stimulation of the gene expression of LL37 by keratinocytes,cathelicidin (LL37); [3],812%
same,Mean ΔCt (CtKLK5 − CtGAPDH),"kallikrein-5 (KLK5); NHEK, 24 hours, with calcitriol, ARG 0.2% + LUP 0.02%",2.46
same,KLK5 expression (relative quantity),"kallikrein-5 (KLK5); NHEK, 24 hours, with calcitriol, control cells = 1.00",2.49 $$$
same,ΔΔCt (KLK5),"kallikrein-5 (KLK5); NHEK, 24 hours, with calcitriol, ΔCtcontrol−ΔCttreated",1.32
same,stimulation of the gene expression of kallikrein-5 by keratinocytes,kallikrein-5 (KLK5); [3],149%
